Like-named read-outs stand apart in the source and are kept apart here.
How the values were obtained:
[1] = tested on: Bacillus anthracis (Sterne, ovine and pathogenic forms), Enterococcus faecalis and Bacillus cereus; settings: Gram-positive bacteria; cited from earlier work
A. baumannii CQ4322 = test: Broth microdilution MIC/MBC, glycosides with or without polymyxins; assay type: cell-based, Acinetobacter baumannii; settings: for MIC: Acinetobacter baumannii, CQ4322
K. pneumoniae CQ1947 = test: Broth microdilution MIC, glycosides with or without polymyxins; assay type: cell-based, Klebsiella pneumoniae; settings: for MIC: Klebsiella pneumoniae, CQ1947
K. pneumoniae CQ4921 = test: Broth microdilution MIC/MBC, glycosides with or without polymyxins; assay type: cell-based, Klebsiella pneumoniae; settings: for MIC: Klebsiella pneumoniae, CQ4921
[2] = alone, read-out: MICA (MIC of each compound individually)
[3] = combination with the lowest FICI
[4] = compound + colistin, lowest FICI

In the case of `CCCCCCCCCCCCO[C@@H]1O[C@H](C)C[C@H](O)[C@H]1O` [Compound 2, dodecyl 4,6-dideoxy-α/β-D-xylo-hexopyranoside], the MIC [1] is listed as greater than 405 µM, the MIC (A. baumannii CQ4322; agent alone, no adjuvant (polymyxin conc. 0), strain G, read-out: MIC) is listed as greater than 100 µg/mL and the MIC (A. baumannii CQ4322; [2]) is listed as greater than 100 µg/mL. The “MIC of colistin in combination with the compound” value (shortened to “MIC … with the compound”) (A. baumannii CQ4322; Cpd conc. 0.4 μg/mL, strain G) was greater than 0.5 µg/mL, the “MIC … with the compound” value (A. baumannii CQ4322; Cpd conc. 0.8 μg/mL, strain G) was 0.5 µg/mL and the “MIC … with the compound” value (A. baumannii CQ4322; Cpd conc. 3.125 μg/mL, strain G) was 0.25 µg/mL. For the same compound, the “MIC … with the compound” value (A. baumannii CQ4322; Cpd conc. 6.25 μg/mL, strain G) was 0.125 µg/mL, the “MIC … with the compound” value (A. baumannii CQ4322; Cpd conc. 12.5 μg/mL, strain G) was 0.125 µg/mL and the “MIC … with the compound” value (A. baumannii CQ4322; Cpd conc. […], strain G) was 0.5 µg/mL. For the same compound, the “MIC of compound in combination with PMB” value (A. baumannii CQ4322; PMB 0.5 μg/mL, strain G) was 0.8 µg/mL, the “MIC of compound in combination with colistin” value (A. baumannii CQ4322; colistin 0.06 μg/mL, strain G) was greater than 100 µg/mL and the “MBC of compound in combination with colistin” value (A. baumannii CQ4322; colistin 0.125 μg/mL, strain G) was 12.5 µg/mL. For the same compound, the “MIC of compound in combination with colistin” value (A. baumannii CQ4322; colistin 0.125 μg/mL, strain G) was 6.3 µg/mL, the “MIC of compound in combination with colistin” value (A. baumannii CQ4322; colistin 0.25 μg/mL, strain G) was 3.1 µg/mL and the “MIC of compound in combination with colistin” value (A. baumannii CQ4322; colistin 0.5 μg/mL, strain G) was 0.8 µg/mL. The “MICA(A + B) (MIC of compound in combination with colistin)” value (“MICA(A + B)” for short) (A. baumannii CQ4322; [3]) was 6.25 µg/mL, the “MICB(A + B) (MIC of colistin in combination with compound)” value (from here on “MICB(A + B)”) (A. baumannii CQ4322; [3]) was 0.125 µg/mL and the FICI (A. baumannii CQ4322; [4]) was 0.28. For the same compound, the “MIC … with the compound” value (K. pneumoniae CQ1947; Cpd conc. 0.4 μg/mL, strain F) was greater than 0.5 µg/mL, the “MIC … with the compound” value (K. pneumoniae CQ1947; Cpd conc. 0.8 μg/mL, strain F) was 0.5 µg/mL and the “MIC … with the compound” value (K. pneumoniae CQ1947; Cpd conc. 3.125 μg/mL, strain F) was 0.5 µg/mL. The “MIC … with the compound” value (K. pneumoniae CQ1947; Cpd conc. 6.25 μg/mL, strain F) was 0.5 µg/mL, the “MIC … with the compound” value (K. pneumoniae CQ1947; Cpd conc. 12.5 μg/mL, strain F) was 0.5 µg/mL and the “MIC … with the compound” value (K. pneumoniae CQ1947; Cpd conc. […], strain F) was 0.5 µg/mL. The MIC (K. pneumoniae CQ1947; agent alone, no adjuvant (polymyxin conc. 0), strain F, read-out: MIC) was greater than 100 µg/mL, the MIC (K. pneumoniae CQ1947; [2]) was greater than 100 µg/mL and the “MIC of compound in combination with PMB” value (K. pneumoniae CQ1947; PMB 0.25 μg/mL, strain F) was greater than 100 µg/mL. The “MIC of compound in combination with PMB” value (K. pneumoniae CQ1947; PMB 0.5 μg/mL, strain F) was 0.8 µg/mL, the “MIC of compound in combination with colistin” value (K. pneumoniae CQ1947; colistin 0.06 μg/mL, strain F) was greater than 100 µg/mL and the “MIC of compound in combination with colistin” value (K. pneumoniae CQ1947; colistin 0.125 μg/mL, strain F) was greater than 100 µg/mL. The “MIC of compound in combination with colistin” value (K. pneumoniae CQ1947; colistin 0.25 μg/mL, strain F) was greater than 100 µg/mL, the “MIC of compound in combination with colistin” value (K. pneumoniae CQ1947; colistin 0.5 μg/mL, strain F) was 0.8 µg/mL and the “MICA(A + B)” value (K. pneumoniae CQ1947; [3]) was 0.8 µg/mL. For the same compound, the “MICB(A + B)” value (K. pneumoniae CQ1947; [3]) was 0.5 µg/mL, the “Interpretation (of FICI)” value (K. pneumoniae CQ1947; compound + colistin) was “Indifferent (1.0 to 4.0 were indifferent)” and the FICI (K. pneumoniae CQ1947; [4]) was 1.004. For the same compound, the “MIC … with the compound” value (K. pneumoniae CQ4921; Cpd conc. 0.4 μg/mL, strain C) was 0.5 µg/mL, the “MIC … with the compound” value (K. pneumoniae CQ4921; Cpd conc. 0.8 μg/mL, strain C) was 0.5 µg/mL and the “MIC … with the compound” value (K. pneumoniae CQ4921; Cpd conc. 3.125 μg/mL, strain C) was 0.125 µg/mL. For the same compound, the “MIC … with the compound” value (K. pneumoniae CQ4921; Cpd conc. 6.25 μg/mL, strain C) was 0.125 µg/mL, the “MIC … with the compound” value (K. pneumoniae CQ4921; Cpd conc. 12.5 μg/mL, strain C) was 0.125 µg/mL and the “MIC … with the compound” value (K. pneumoniae CQ4921; Cpd conc. […], strain C) was 0.5 µg/mL. For the same compound, the MIC (K. pneumoniae CQ4921; agent alone, no adjuvant (polymyxin conc. 0), strain C, read-out: MIC) was greater than 100 µg/mL, the MIC (K. pneumoniae CQ4921; [2]) was greater than 100 µg/mL and the “MIC of compound in combination with PMB” value (K. pneumoniae CQ4921; PMB 0.5 μg/mL, strain C) was no more than 0.1 µg/mL. The “MIC of compound in combination with colistin” value (K. pneumoniae CQ4921; colistin 0.06 μg/mL, strain C) was greater than 100 µg/mL, the “MBC of compound in combination with colistin” value (K. pneumoniae CQ4921; colistin 0.125 μg/mL, strain C) was 6.3 µg/mL and the “MIC of compound in combination with colistin” value (K. pneumoniae CQ4921; colistin 0.125 μg/mL, strain C) was 3.1 µg/mL. For the same compound, the “MIC of compound in combination with colistin” value (K. pneumoniae CQ4921; colistin 0.25 μg/mL, strain C) was 3.1 µg/mL, the “MIC of compound in combination with colistin” value (K. pneumoniae CQ4921; colistin 0.5 μg/mL, strain C) was no more than 0.1 µg/mL and the “MICA(A + B)” value (K. pneumoniae CQ4921; [3]) was 3.125 µg/mL. The “MICB(A + B)” value (K. pneumoniae CQ4921; [3]) was 0.125 µg/mL, the “Interpretation (of FICI)” value (K. pneumoniae CQ4921; compound + colistin) was “Synergy (Values ≤ 0.5 were considered synergistic)” and the FICI (K. pneumoniae CQ4921; [4]) was 0.27.
